Results published in patent US20140228329A1, “USE OF 25-HYDROXY VITAMIN D3 TO PROMOTE PHOSPHOROUS UTILISATION IN RUMINANTS” (DSM IP ASSETS B.V., priority 2011, published 2014).

Assays:
cattle [1] = assay: Low Phosphorous diet experiment in cattle: blood plasma phosphorous concentration; format: in vivo; settings: cattle on low Phosphorous roughage diet, 2,000 μg 25-hydroxy-vitamin D3 per head/day vs control diet; measured after 1, 11, 12, 13 and 14 days; effect at least after 10 days (FIG. 1)
Procedure: (§1) In an experimental cattle farm, two groups of animals were selected for the following experiment with a low Phosphorous diet.
(§2) One group received the control diet which was the standard roughage diet without the supplementation of 25-hydroxy-vitamin D3. The other group received the experimental diet which was the standard roughage diet supplemented with 2,000 μg 25-hydroxy-vitamin D3 per head/day
After 1, 11, 12, 13 and 14 days the blood plasma concentration of phosphorous was measured by standard method.

cattle [2] = assay: Low Phosphorous diet experiment in cattle: phosphorous in diet, faeces and urine (P balance); format: in vivo
Procedure: as §1, §2
Additionally the phosphorous concentration in g/day was measured or/calculated in the diet, faeces and urine.

[3] = low Phosphorous roughage diet, 2,000 μg 25-hydroxy-vitamin D3 per head/day, NS vs control
[4] = low Phosphorous roughage diet, 2,000 μg 25-hydroxy-vitamin D3 per head/day, P < 0.05 vs control

## C=C1CC[C@H](O)C/C1=C/C=C1\CCC[C@]2(C)[C@@H]([C@H](C)CCCC(C)(C)O)CC[C@@H]12 [25OH-D3, 25-hydroxy vitamin D3]
Cattle [1]
  phosphorous concentration in blood plasma: significant increase
Cattle [2]; low Phosphorous diet, after 25-OH D3 supplementation vs control
  P excretion by the animal: significant decrease
Cattle [2]; [3]
  P (g/day) Feed: 26.36 g/day
  P (g/day) Urine: 1.12 g/day
Cattle [2]; [4]
  P (g/day) Faeces: 17.21 g/day
  P (g/day) Retained: 8.03 g/day
